US11897910B2, “Mito-honokiol compounds and methods of synthesis and use thereof” (The Medical College of Wisconsin, Inc., priority 2015, dated 2024)

Key:
[1] = system: human MiaPaCa-2 pancreatic cancer cells; assay: Antiproliferative effect on pancreatic cancer cells; type: cell-based
Text: FIG. 3. Comparison of anti-proliferative effects of honokiol (HNK), mito-honokiol (Mito-HNK) and bis-mito-honokiol (Mito-bis-HNK) on human MiaPaCa-2 pancreatic cancer cells.
FIG. 15A-15F. Effects of mito-honokiol alone or in combination with 2-deoxyglucose on pancreatic cells. […] Further, the combining the mito-honokiols of the present invention with antiglycolytic agents (e.g. 2-deoxyglucose) reduced the rate of proliferation of pancreatic cancer cells than either treatment alone, as shown for a number of different concentrations in FIG. 15C-F.
The inventors also compared the antiproliferative activity of mito-honokiol analogs to honokiol using human MiaPaCa-2 pancreatic cancer cells (FIG. 3).

[2] = system: MiaPaCa-2 cells; assay: Intracellular ATP, combination with 2-deoxyglucose; type: cell-based, human; conditions: combined with 2-deoxyglucose (2-DG)
Text: FIG. 4. Synergistic depletion of intracellular ATP in MiaPaCa-2 cells by combination of 2-deoxyglucose (2-DG) and honokiol (HNK) and mito-honokiol (Mito-HNK). The data were obtained on the human pancreatic cancer MiaPaCa-2 cell line. […] In one embodiment, the mito-honokiols of the present invention may be also used in combination with standard-of-care chemotherapeutics or with ionizing radiation to treat resistant cancer cells.

[3] = system: H2030-BrM3 and DMS-273 orthotopic lung tumors; assay: Orthotopic lung cancer model; type: in vivo, mice
Method: DM273 cells (1×10^6 cells/50 μg of growth factor reduced Matrigel in 50 μL of RPMI-1640 medium) were injected into the left lung. One week after injection, mice were treated with the same dose of HNK or Mito-HNK (7.5 μmol/kg) or vehicle (corn oil) by oral gavage five times per week for three weeks). […] Five-week-old male athymic nude mice were used for experiments. Mice were anesthetized with isoflurane and placed in the right lateral decubitus position. A total of 1×10^6 H2030-BrM3 cells in 50 μg of growth factor reduced Matrigel (BD Biosciences, San Jose, CA) in 50 μL of RPMI-1640 medium were injected through the left rib cages of mice into their left lungs, as previously described (Nguyen et al., 2009). […] Tumor growth and metastases phenotypes were monitored during this time by bioluminescence with an Xenogen IVIS-200. Mice were sacrificed at the endpoint; tissues were extracted, freshly frozen, and OCT-fixed or formalin-fixed with 10% zinc for later western blot and immunohistochemistry (IHC) analyses.

[4] = system: STAT3 phosphorylation; assay: PathScan RTK signaling array; type: cell-based; conditions: DMS-273 cells; HNK 10 μM and 20 μM, Mito-HNK 0.2 μM, six hours
Method: H2030-BrM3 and DMS-273 cells treated with control DMSO and various doses of HNK and Mito-HNK for four hours were lysed with 200 μl lysis buffer containing proteinase inhibitor cocktails (Cell Signaling Technology, Danvers, MA), sheared 10 times with a 28-gauge needle, spun at 16,000×g for 30 min, and normalized by protein concentration as determined by the Bradford method. Normalized lysate was resolved in a PathScan RTK Signaling Array, and the signaling array was examined by a Li-COR Odyssey infrared imaging system (Li-COR Biosciences-Biotechnology, Lincoln, NE).
For the RTK signaling array, we treated DMS-273 cells with two different doses of HNK (10 μM and 20 μM) and Mito-HNK (0.2 μM) for six hours.

[5] = system: H2030-BrM3 cells; assay: Cell proliferation assay (IncuCyte); type: cell-based; conditions: Homo sapiens
Method: (§1) For the cell proliferation assay, cells were seeded onto 96-well tissue culture plates at 2-3,000 cells per well. Twenty-four hours after seeding, treatment group cells were exposed to various concentrations of HNK for 48 hours, and control group cells received fresh medium. The plate was incubated at 37° C. and 5% CO2 and monitored in IncuCyte (Essen Bioscience, Ann Arbor, MI). Data analysis was conducted using IncuCyte […] software. All assays were performed in triplicate. Next, we examined the anticancer effects of Mito-HNK compared to HNK in vitro. Various doses of HNK and Mito-HNK were treated in either H2030-BrM3 or DMS-273 cells, and the antiproliferative effects were monitored with an IncuCyte Live-Cell Imaging Analyzer. […] Furthermore, we examined the anti-invasive effects of Mito-HNK in H2030-BrM3 and DMS-273 cells via a Boyden chamber invasion assay. Both cells were treated with vehicle control (DMSO), HNK (20 μM), and Mito-HNK (0.2 μM) for 36 hours, and invaded cells were determined.

[6] = system: DMS-273 cells; assay: Cell proliferation assay (IncuCyte); type: cell-based; conditions: Homo sapiens
Method: as §1

[7] = system: UACC-62 cells; assay: TMRE flow cytometry, mitochondrial depolarization; type: cell-based, human; conditions: pilot experiments
Text: (A) Representative TMRE quantification using flow cytometry. (B) Mean fluorescence intensity (MFI) of TMRE in Mito-MGN-treated and vehicle (V)-treated UACC-62-WT cells. Values are mean±SEM, n=3
Not to be bound by any theory, but it is believed that Mito-MGN-induced ROS halts melanoma proliferation through induction of mitophagy. ROS at high μM concentrations have detrimental effects on lipids, proteins, and DNA, whereas at nM concentrations, ROS exerts potent signaling effects (11, 41, 65). We postulate that OXPHOS inhibition by Mito-MGN increases ROS levels, which in turn stimulates mitophagy. To test this hypothesis, we will use an iterative approach to first measure mitochondrial membrane damage, followed by the parallel examination of molecular markers and phagolysome activation needed for mitophagy. Tetramethylrhodamine ethyl ester (TMRE) is retained in metabolically active mitochondria and released into the cytosol and extracellular space of cells with depolarized/damaged mitochondria (67), as illustrated in our recent paper using related mitochondria-targeted agents (12).

[8] = system: UACC-62-WT cells; assay: Melanoma cell proliferation monitored in real time; type: cell-based, human
Method: (§2) UACC-62-WT cells (A) or UACC-62-R cells (B) were treated with PLX4720 as indicated. Cell proliferation was monitored in real time with the continuous presence of indicated treatments until the end of each experiment. (C) Representative images shown are the segmentation of phase contrast images (segmentation mask illustrated in black). (D) The cell confluence (as control groups reach 95% confluency) is plotted against concentration of PLX4720 inhibitor. Dashed lines represent the fitting curves used to determine the IC50 values. […] (F) The effect of Mito-MGN (0.2 μM) on mitochondrial complex I and II activities (oxygen consumption rate, OCR) is shown for wild-type (red) and resistant UACC-62 (blue) melanoma cells.
(§3) UACC-62-WT cells (A) or UACC-62-R cells (B) were treated with Mito-MGN as indicated. Cell proliferation was monitored in real time with the continuous presence of indicated treatments until the end of each experiment. (C) Representative images shown are the segmentation of phase contrast images (segmentation mask illustrated in black). (D) The cell confluence (as control groups reach 95% confluency) is plotted against Mito-MGN concentration. Dashed lines represent the fitting curves used to determine the IC50 values.
(§4) To establish PLX4720-resistant melanoma cell line, UACC-62 cells (ATCC) were continuously exposed to increasing concentrations of PLX4720 (1-20 μM) for six months until the logarithmic growth resumed. PLX4720-containing media were replaced twice a week. Resistant cell line (UACC-62R) was maintained in routine culture in the presence of 20 μM PLX4720. FIGS. 21A and 21B show the effect of PLX4720 on proliferation of UACC-62-WT and UACC-62-R cells.
(§5) FIGS. 22A and 22B show the effect of Mito-magnolol on proliferation of UACC-62-WT and UACC-62-R cells. Cell proliferation was monitored in real time for cells incubated continuously under treatment conditions as shown.

[9] = system: UACC-62-R cells; assay: Melanoma cell proliferation monitored in real time; type: cell-based, human; conditions: 0.1-0.3 μM, six days
Method: as §2, §3, §4, §5

[10] = system: UACC-62-WT cells; assay: Hydroethidine oxidation products by HPLC; type: cell-based, human; conditions: 24 h preincubation
Method: (§6) Mito-magnolol stimulates ROS and causes oxidation of mitochondrial antioxidative enzyme in BRAFV600E inhibitor-resistant melanoma cells. UACC-62-WT and UACC-62-R cells were preincubated with Mito-magnolol for 24 h and then treated with hydroethidine. Cell lysates were analyzed by HPLC and the superoxide-specific hydroxylation product (2-OH-E^+) and other two-electron and one-electron oxidation products (E^+ and E^+-E^+) were determined.
(§7) Hydroethidine (HE) was used to measure intracellular O2^⋅− formation. 2-Hydroxyethidium (2-OH-E^+), the diagnostic marker product of O2^⋅−/HE reaction (FIG. 23A) increased in Mito-MGN treated melanoma cells (FIG. 23B). In addition, Mito-MGN induced the iron or peroxidase-dependent oxidation of HE as evidenced by enhanced intracellular formation of E^+-E^+ and E^+ (FIG. 23B).

[11] = system: UACC-62-R cells; assay: Hydroethidine oxidation products by HPLC; type: cell-based, human; conditions: 24 h preincubation
Method: as §6, §7

[12] = system: mitochondrial complex I in UACC-62-WT cells; assay: Seahorse XF96 bioenergetics (OCR, complex I-mediated respiration, glycolysis); type: cell-based, human
Method: (§8) Melanoma cells harboring BRAF oncogenic mutations use aerobic glycolysis (the Warburg effect) to meet their energy demands. […] One reason for the acquired resistance to PLX4720 is the adaptive change from glycolysis to OXPHOS.
(§9) We used a Seahorse XF96 Analyzer to measure OCR, a readout of mitochondrial respiration, and […], a surrogate marker for glycolysis, in real time. OCR is measured after adding substrates and inhibitors of complexes I-IV. In preliminary studies, Mito-MGN inhibited complex I activity in both WT and resistant cells (FIG. 21F).

[13] = molecular target: mitochondrial complex I in UACC-62-R cells; assay: as above; type: cell-based, human
Method: as §8, §9

[14] = system: mitochondrial Prx3 in resistant melanoma cells; assay: Peroxiredoxin redox status (Western blot); type: cell-based, human; conditions: cytosolic Prx1 largely unaffected
Text: (§10) (A) Western blot show the redox status of cytosolic (Prx1) and mitochondrial (Prx3) peroxiredoxins. (B) Quantitative analysis of the extent of Prx1 and Prx3 oxidation. Values are mean±SD, n=3. **, P≤0.01. (C) Scheme showing the pathways controlling the redox state and covalent dimer formation of peroxiredoxins in cells.
(§11) Peroxiredoxins (Prx) are abundant endogenous intracellular thiol peroxidases that act as compartment-specific sensors of hydrogen peroxide (H2O2) in mitochondrial (Prx3) and cytosolic (Prx1) compartments (62-64). Prxs rapidly react with H2O2 (k=10^6-10^7 M^−1 s^−1) (64, 65). Prx3 accounts for nearly 90% of mitochondrial peroxidase activity (64, 66).

[15] = system: mitochondrial Prx3 in WT melanoma cells; assay: Peroxiredoxin redox status (Western blot); type: cell-based, human; conditions: cytosolic Prx1 largely unaffected
Text: as §10, §11

[16] = system: B16.F10 cells; assay: B16.F10 orthotopic melanoma model; type: in vivo, mice
Method: (A) Kaplan-Maier survival curves of B16-F10 engrafted mice treated on days 7, 9, 11, 14, 16, & 18 with Mito-MGN [1 mg] or with α-PD-L1 [250 μg]. (B) Tumor size (mm2) over time. (C) Tumor volume measured on day 19. Values are mean±SD, n=4 mice/group. ***, P≤0.001.
T cells were detected using CD3 immunostaining (brown). Arrowheads highlight CD3+ T cells in melanoma (blue cells). Data representative of 4 separate mice.

[17] = Serum toxicity markers (pilot study); conditions: three weekly treatment at 5 mg/kg
[18] = system: UACC-62-WT cells; assay: UACC-62-WT orthotopic melanoma xenograft; type: in vivo, mice; conditions: 1 mg injected intratumorally in 50 μL
Method: (A) Representative μCT images on day 58 from UACC-62-WT xenographed (T=tumor) mice treated twice a week with vehicle (left) or 1 mg Mito-MGN (right). Data representative of 2 mice per group. (B) Quantification of tumor volume (mm^3) measured using calipers ex vivo on day 58.
The efficacy of Mito-MGN in a murine model of melanoma was tested using cells sensitive and resistant to BRAF inhibitors as tools to probe the anti-tumor effects of targeted OXPHOS inhibitors.

[19] = 1 mg/tumor Mito-MGN or 250 μg anti-PD-L1 antibody

C=CCc1ccc(OCCCCCCCCCC[P+](c2ccccc2)(c2ccccc2)c2ccccc2)c(-c2ccc(OCCCCCCCCCC[P+](c3ccccc3)(c3ccccc3)c3ccccc3)c(CC=C)c2)c1 [Bis-Mito-HNK]
antiproliferative potency compared with honokiol ([1]; MiaPaCa-2): more potent than honokiol

C=CCc1ccc(O)c(-c2ccc(O)c(CC=C)c2)c1 [HNK, honokiol]
cellular ATP levels [2]: synergize with 2-deoxyglucose (2-DG) in decreasing cellular ATP levels
tumor growth ([3]; 7.5 μmol/kg oral gavage five times per week for three weeks): did not significantly reduce tumor growth
observable side effects ([3]; H2030-BrM3 and DMS-273 orthotopic models): did not show any observable side effects
STAT3 phosphorylation levels [4]: dramatically decreased
IC50 [5]: 27 µM
IC50 [6]: 30 µM

C=CCc1ccc(O)c(-c2cc(CC=C)ccc2OC[P+](c2ccccc2)(c2ccccc2)c2ccccc2)c1.[Br-] [Mito-MGN]
mitochondrial membrane potential (TMRE) [7]: dose dependently decreases mitochondrial membrane potential
sensitivity of proliferation ([8]; 0.1-0.3 μM, six days): exquisitely sensitive
sensitivity of proliferation [9]: exquisitely sensitive
HE oxidation products 2-OH-E+, E+ and E+-E+ [10]: significantly higher amount
HE oxidation products 2-OH-E+, E+ and E+-E+ [11]: significantly higher amount
OXPHOS (OCR) ([12]; WT cells): significantly inhibiting OXPHOS
glycolysis (SCAR/PPR) ([12]; WT cells): minimally affected glycolysis
IC50 ([12]; read-out: IC50 to inhibit complex I-mediated respiration, 1 h treatment, UACC-62-WT): 0.35 µM
IC50 ([13]; read-out: IC50 to inhibit complex I-mediated respiration, 1 h treatment, UACC-62-R): 0.66 µM
OXPHOS (OCR) ([13]; resistant cells): significantly inhibiting OXPHOS
glycolysis (SCAR/PPR) ([13]; resistant cells): minimally affected glycolysis
oxidation of mitochondrial Prx3 [14]: stimulated the oxidation of mitochondrial Prx3
oxidation of mitochondrial Prx3 [15]: stimulated the oxidation of mitochondrial Prx3
melanoma growth in vivo [16, 19]: decreased melanoma growth
survival [16, 19]: increased survival
T cell levels in excised tumors (CD3 immunostaining) ([16]; compared to vehicle control tumors): increased T cell levels
efficiency in abrogating tumor progression and size ([16]; compared with anti-PD-L1): equal to anti-PD-L1
antiproliferative effects ([1]; 1 μM, FIG. 15B): exhibit antiproliferative effects
BUN ([17]; serum, day 19, Mean ± SE, n = 4-5, ref (12-28)): 24.5 ± 1.9 mg/dL
ALT ([17]; serum, day 19, Mean ± SE, n = 4-5, ref (22-77)): 58.7 ± 12.7 IU/L
AP ([17]; serum, day 19, Mean ± SE, n = 4-5, ref (45-222)): 36.7 ± 10.8 IU/L
liver or kidney toxicity [17]: little liver or kidney toxicity
tumor size (μCT in vivo and ex vivo excised tumors) [18]: potently reduced tumor size

CCCS(=O)(=O)Nc1ccc(F)c(C(=O)c2c[nH]c3ncc(Cl)cc23)c1F [PLX4720, reference compound]
cells after six days of treatment (phase contrast images) ([8]; 10 μM, WT versus resistant cells): considerably fewer WT cells compared to resistant cells
